These compounds were tested against T1, Recombinant Human Poly(ADP-Ribose) Polymerase (PARP), PARP-1 (Homo sapiens, UniProt P09874) (assay: PARP Enzyme Inhibition Assay (PARP1, SPA/FlashPlate)). Conditions: 1 nM PARP enzyme, [3H]-NAD+, 200 nM biotinylated histone H1, 200 nM slDNA.
T1 construct: purchased Trevigen; host or cells: E. coli
Assay type: biochemical
Procedure: Nicotinamide[2,5′,8-3H]adenine dinucleotide and strepavidin SPA beads were purchased from Amersham Biosiences. Recombinant Human Poly(ADP-Ribose) Polymerase (PARP), purified from E. coli and 6-Biotin-17-NAD^+, were purchase from Trevigen. NAD^+, histone, aminobenzamide, 3-amino benzamide and Calf Thymus DNA (dcDNA) were purchased from Sigma. Stem loop oligonucleotide containing MCAT sequence was obtained from Qiagen. The oligos were dissoloved to 1 mM in annealing buffer containing 10 mM Tris HCl pH 7.5, 1 mM EDTA, and 50 mM NaCl, incubated for 5 minutes at 95° C., and annealed at 45° C. for 45 minutes. Histone H1 (95% electrophoretically pure) was purchased from Roche. Biotinylated histone H1 was prepared by treating the protein with Sulfo-NHS-LC-Biotin from Pierce. The biotinylation reaction was conducted by slowly and intermittently adding 3 equivalents of 10 mM Sulfo-NHS-LC-Biotin to 100 μM Histone H1 in phosphate-buffered saline, pH 7.5, at 4° C. with gentle vortexing over 1 minute followed by subsequent 4° C. incubation for 1 hour. Streptavidin coated (FlashPlate Plus) microplates were purchased from Perkin Elmer.
PARP1 assay was conducted in PARP assay buffer containing 50 mM Tris pH 8.0, 1 mM DTT, 4 mM MgCl2. PARP reactions contained […] [^3H]-NAD^+ (1.6 uCi/mmol), 200 nM biotinylated histone H1, 200 nM slDNA, and 1 nM PARP enzyme. Auto reactions utilizing SPA bead-based detection were carried out in 100 μL volumes in white 96 well plates. Reactions were initiated by adding 50 μl of 2×NAD^+ substrate mixture to 50 μL of 2× enzyme mixture containing PARP and DNA. These reactions were terminated by the addition of 150 μL of 1.5 mM benzamide (˜1000-fold over its IC50). 170 μL of the stopped reaction mixtures were transferred to streptavidin Flash Plates, incubated for 1 hour, and counted using a TopCount microplate scintillation counter.

T1 sequence (P09874 whole entry): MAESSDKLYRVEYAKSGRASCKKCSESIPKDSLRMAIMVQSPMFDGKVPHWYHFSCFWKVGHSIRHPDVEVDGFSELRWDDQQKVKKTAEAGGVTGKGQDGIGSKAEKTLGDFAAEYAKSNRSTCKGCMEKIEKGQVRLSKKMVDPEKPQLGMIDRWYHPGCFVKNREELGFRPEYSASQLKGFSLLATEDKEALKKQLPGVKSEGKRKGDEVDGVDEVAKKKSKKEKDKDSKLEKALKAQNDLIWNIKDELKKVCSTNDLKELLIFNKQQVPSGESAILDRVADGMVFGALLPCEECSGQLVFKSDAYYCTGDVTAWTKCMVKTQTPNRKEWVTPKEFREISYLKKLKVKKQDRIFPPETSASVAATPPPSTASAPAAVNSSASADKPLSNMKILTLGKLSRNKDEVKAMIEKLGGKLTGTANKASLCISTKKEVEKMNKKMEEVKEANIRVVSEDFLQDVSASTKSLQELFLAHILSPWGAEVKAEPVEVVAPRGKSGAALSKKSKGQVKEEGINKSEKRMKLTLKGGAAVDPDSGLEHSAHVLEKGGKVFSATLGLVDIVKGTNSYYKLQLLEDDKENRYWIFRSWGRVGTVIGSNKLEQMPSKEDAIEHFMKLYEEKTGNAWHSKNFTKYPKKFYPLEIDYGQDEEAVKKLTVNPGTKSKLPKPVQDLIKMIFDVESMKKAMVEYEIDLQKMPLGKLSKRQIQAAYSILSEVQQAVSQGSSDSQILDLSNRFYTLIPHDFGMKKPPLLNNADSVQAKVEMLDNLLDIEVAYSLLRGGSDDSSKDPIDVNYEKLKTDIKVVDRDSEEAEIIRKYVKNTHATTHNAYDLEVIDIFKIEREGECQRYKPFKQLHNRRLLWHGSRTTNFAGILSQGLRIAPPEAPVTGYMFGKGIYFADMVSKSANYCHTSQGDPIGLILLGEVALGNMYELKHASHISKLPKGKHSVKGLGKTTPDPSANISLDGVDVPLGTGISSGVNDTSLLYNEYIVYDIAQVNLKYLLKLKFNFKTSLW

Row | Ki [µM] | Compound
1 | 1.62 | NC(=O)c1cccc2nc(-c3ccc(-c4ccncc4)cc3)oc12 [Example 10, 2-(4-pyridin-4-ylphenyl)-1,3-benzoxazole-7-carboxamide]
2 | 3.25 | NC(=O)c1cccc2nc(-c3ccc(-c4cccc(N)c4)cc3)oc12 [Example 8, 2-(3′-amino-1,1′-biphenyl-4-yl)-1,3-benzoxazole-7-carboxamide]
3 | 0.196 | NC(=O)c1cccc2nc(-c3ccc(-c4ccccc4)cc3)oc12 [Example 5, 2-(1,1′-biphenyl-4-yl)-1,3-benzoxazole-7-carboxamide]
4 | 0.063 | NC(=O)c1cccc2nc(-c3ccc(-c4cccnc4)cc3)oc12 [Example 9, 2-(4-pyridin-3-ylphenyl)-1,3-benzoxazole-7-carboxamide]
5 | 0.011 | NC(=O)c1cccc2nc(-c3ccc(-c4ccccn4)cc3)oc12 [Example 11, 2-(4-pyridin-2-ylphenyl)-1,3-benzoxazole-7-carboxamide]
6 | 0.109 | NC(=O)c1cccc2nc(-c3ccc(-c4cc[nH]n4)cc3)oc12 [Example 7, 2-[4-(1H-pyrazol-3-yl)phenyl]-1,3-benzoxazole-7-carboxamide]
7 | 0.048 | NC(=O)c1cccc2nc(-c3ccc(Br)cc3)oc12 [Example 4, 2-(4-bromophenyl)-1,3-benzoxazole-7-carboxamide]

Continued, compound first:

Row | Compound | Ki [µM]
8 | NC(=O)c1cccc2oc(-c3ccc(-c4cccnc4)cc3)nc12 [Example 3, 2-(4-pyridin-3-ylphenyl)-1,3-benzoxazole-4-carboxamide] | 0.312
9 | NC(=O)c1cccc2oc(-c3ccccc3)nc12 [Example 12, 2-phenyl-1,3-benzoxazole-4-carboxamide] | 0.506
10 | NC(=O)c1cccc2nc(-c3ccc(-c4ccc5c(c4)OCO5)cc3)oc12 [Example 6, 2-[4-(1,3-benzodioxol-5-yl)phenyl]-1,3-benzoxazole-7-carboxamide] | 0.841
11 | NC(=O)c1cccc2oc(-c3ccc(-c4ccccc4)cc3)nc12 [Example 2, 2-(1,1′-biphenyl-4-yl)-1,3-benzoxazole-4-carboxamide] | 9.18
12 | NC(=O)c1cccc2oc(-c3ccc(Br)cc3)nc12 [Example 1, 2-(4-bromophenyl)-1,3-benzoxazole-4-carboxamide] | 0.142

Source: patent US20110293744A1, “BENZOXAZOLE INHIBITORS OF POLY(ADP-RIBOSE)POLYMERASE” (ABBOTT LABORATORIES, priority 2009, published 2011)
